Patent US20170129916A1, “NOVEL BETULINIC PROLINE IMIDAZOLE DERIVATIVES AS HIV INHIBITORS” (HETERO RESEARCH FOUNDATION, priority 2014, published 2017)

Legend:
[1] = test system: HIV-1 strains, for e.g., 92HT599; experiment: Antiviral activity: p24 estimation in MT-2 cells infected with HIV-1; type: cell-based; conditions: Human immunodeficiency virus 1, MT2, MT-2 cells infected with HIV-1, p24, ~96 hours; for IC50: read-out: Antiviral activity IC50 (nM) Efficacy IC50
Protocol: MT-2 cells were infected with required number of TCID50's of HIV-1 strains, for e.g., 92HT599. The infected cells were plated at the concentration of 30, 000 cells per well in a 96 well plate. Test compound was added to the 96 well plate with the final concentration of DMSO (vehicle—not more than 1%). The plates are then incubated in a CO2 incubator for ˜96 hours (˜4 days) for viral infection. At the end of incubation period an aliquot from each well was taken for p24 estimation. The quantitation of p24 is an estimated index for antiviral activity of the compound. Percent inhibition was calculated with reference to control values (vehicle controls).
p-24 estimation was carried out using Advance biosciences kit as per the procedure detailed by supplier.

[2] = Single dose oral pharmacokinetic study; type: in vivo; conditions: mouse, mice, 30 mg/kg, plasma; for AUC(0-t): read-out: Mice oral PK @30 mg/kg AUC 0-t; for Cmax: read-out: Mice oral PK @30 mg/kg Cmax
Summary of the method: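 Rats or mice received 30 mg/kg orally at 10 ml/kg dose volume. Retro-orbital blood was taken into K3 EDTA at defined intervals under light ether anesthesia and centrifuged to plasma. Plasma levels were measured by LC-MS-MS.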

Row | SMILES | inhibition at 0.1 µM [1] [%] | inhibition at 1 µM [1] [%] | IC50 [1] [nM] | AUC(0-t) [2] [µg·h/mL] | Cmax [2] [ng/mL]
1 | C=C(C)[C@@H]1CC[C@]2(C(=O)N3CCC[C@H]3c3nc(-c4cccc(Cl)c4)c[nH]3)CC[C@]3(C)[C@H](CC[C@@H]4[C@@]5(C)CC[C@H](OC(=O)[C@H]6C[C@@H](C(=O)O)C6(C)C)C(C)(C)[C@@H]5CC[C@]43C)[C@@H]12 [Compound 28, (1R,3S)-3-((((1R,3aS,5aR,5bR,7aR,9S,11aR,11bR,13aR,13bR)-3a-((S)-2-(4-(3-chlorophenyl)-1H-imidazol-2-yl)pyrrolidine-1-carbonyl)-5a,5b,8,8,11a-pentamethyl-1-(prop-1-en-2-yl)icosahydro-1H-cyclopenta[a]chrysen-9-yl)oxy)carbonyl)-2,2-dimethylcyclobutane-1-carboxylic acid] | 54 | 99 | 19.4 | 248 | 10000
2 | C=C(C)[C@@H]1CC[C@]2(C(=O)N3C[C@H](O)C[C@H]3c3nc(-c4ccccc4)c[nH]3)CC[C@]3(C)[C@H](CC[C@@H]4[C@@]5(C)CC[C@H](OC(=O)[C@H]6C[C@@H](C(=O)O)C6(C)C)C(C)(C)[C@@H]5CC[C@]43C)[C@@H]12 [Compound 29, (1R,3S)-3-((((1R,3aS,5aR,5bR,7aR,9S,11aR,11bR,13aR,13bR)-3a-((2S,4R)-4-hydroxy-2-(4-phenyl-1H-imidazol-2-yl)pyrrolidine-1-carbonyl)-5a,5b,8,8,11a-pentamethyl-1-(prop-1-en-2-yl)icosahydro-1H-cyclopenta[a]chrysen-9-yl)oxy)carbonyl)-2,2-dimethyl cyclobutane-1-carboxylic acid] | 99 | 99 | 12.3 | 57.5 | 4500
3 | C=C(C)[C@@H]1CC[C@]2(C(=O)N3C[C@H](OCCOC)C[C@H]3c3nc(C(C)(C)C)c[nH]3)CC[C@]3(C)[C@H](CC[C@@H]4[C@@]5(C)CC[C@H](OC(=O)[C@H]6C[C@@H](C(=O)O)C6(C)C)C(C)(C)[C@@H]5CC[C@]43C)[C@@H]12 [Compound 31, (1R,3S)-3-((((1R,3aS,5aR,5bR,7aR,9S,11aR,11bR,13aR,13bR)-3a-((2S,4R)-2-(4-(tert-butyl)-1H-imidazol-2-yl)-4-(2-methoxyethoxy)pyrrolidine-1-carbonyl)-5a,5b,8,8,11a-pentamethyl-1-(prop-1-en-2-yl)icosahydro-1H-cyclopenta[a]chrysen-9-yl)oxy)carbonyl)-2,2-dimethylcyclobutane-1-carboxylic acid] | 100 | 100 | 19.7 | 195 | 9200
4 | C=C(C)[C@@H]1CC[C@]2(C(=O)N3C[C@H](OC)C[C@H]3c3nc(-c4ccccc4)c[nH]3)CC[C@]3(C)[C@H](CC[C@@H]4[C@@]5(C)CC[C@H](OC(=O)[C@H]6C[C@@H](C(=O)O)C6(C)C)C(C)(C)[C@@H]5CC[C@]43C)[C@@H]12 [Compound 32, (1R,3S)-3-((((1R,3aS,5aR,5bR,7aR,9S,11aR,11bR,13aR,13bR)-3a-((2S,4R)-4-methoxy-2-(4-phenyl-1H-imidazol-2-yl)pyrrolidine-1-carbonyl)-5a,5b,8,8,11a-pentamethyl-1-(prop-1-en-2-yl)icosahydro-1H-cyclopenta[a]chrysen-9-yl)oxy)carbonyl)-2,2-dimethylcyclobutane-1-carboxylic acid] | 60 | 99 | 23.3 | 316 | 13900
5 | C=C(C)[C@@H]1CC[C@]2(C(=O)N3CCC[C@H]3c3ncc(C(F)(F)F)[nH]3)CC[C@]3(C)[C@H](CC[C@@H]4[C@@]5(C)CC[C@H](OC(=O)[C@H]6C[C@@H](C(=O)O)C6(C)C)C(C)(C)[C@@H]5CC[C@]43C)[C@@H]12 [Compound 34, (1R,3S)-2,2-dimethyl-3-((((1R,3aS,5aR,5b,7aR,9S,11aR,11bR,13aR,13bR)-5a,5b,8,8,11a-pentamethyl-1-(prop-1-en-2-yl)-3a-((S)-2-(5-(trifluoromethyl)-1H-imidazol-2-yl)pyrrolidine-1-carbonyl)icosahydro-1H-cyclopenta[a]chrysen-9-yl)oxy)carbonyl)cyclobutane-1-carboxylic acid] | 86 | 100 | 6.66 | 417 | 18700
6 | C=C(C)[C@@H]1CC[C@]2(C(=O)N3CCC[C@H]3c3nc(C)c(C)[nH]3)CC[C@]3(C)[C@H](CC[C@@H]4[C@@]5(C)CC[C@H](OC(=O)[C@H]6C[C@@H](C(=O)O)C6(C)C)C(C)(C)[C@@H]5CC[C@]43C)[C@@H]12 [Compound 35, (1R,3S)-3-((((1R,3aS,5aR,5bR,7aR,9S,11aR,11bR,13aR,13bR)-3a-((S)-2-(4,5-dimethyl-1H-imidazol-2-yl)pyrrolidine-1-carbonyl)-5a,5b,8,8,11a-pentamethyl-1-(prop-1-en-2-yl)icosahydro-1H-cyclopenta[a]chrysen-9-yl)oxy)carbonyl)-2,2-dimethylcyclobutane-1-carboxylic acid] | 100 | 100 | 2.81 | 250 | 14000
7 | C=C(C)[C@@H]1CC[C@]2(C(=O)N3CCC[C@H]3c3ncc[nH]3)CC[C@]3(C)[C@H](CC[C@@H]4[C@@]5(C)CC[C@H](OC(=O)[C@H]6C[C@@H](C(=O)O)C6(C)C)C(C)(C)[C@@H]5CC[C@]43C)[C@@H]12 [Compound 36, (1R,3S)-3-((((1R,3aS,5aR,5bR,7aR,9S,11aR,11bR,13aR,13bR)-3a-((S)-2-(1H-imidazol-2-yl)pyrrolidine-1-carbonyl)-5a,5b,8,8,11a-pentamethyl-1-(prop-1-en-2-yl)icosahydro-1H-cyclopenta[a]chrysen-9-yl)oxy)carbonyl)-2,2-dimethylcyclobutane-1-carboxylic acid] | 98 | 100 | 1.22 | 158 | 10800
8 | C=C(C)[C@@H]1CC[C@]2(C(=O)N3CCC[C@H]3c3nc4ccccc4[nH]3)CC[C@]3(C)[C@H](CC[C@@H]4[C@@]5(C)CC[C@H](OC(=O)[C@H]6C[C@@H](C(=O)O)C6(C)C)C(C)(C)[C@@H]5CC[C@]43C)[C@@H]12 [Compound 37] | 99 | 99 | 3.21 | 487 | 16800
9 | C=C(C)[C@@H]1CC[C@]2(C(=O)N3C[C@H](OCCOC)C[C@H]3c3nc(-c4ccccc4)c[nH]3)CC[C@]3(C)[C@H](CC[C@@H]4[C@@]5(C)CC[C@H](OC(=O)CC(C)(C)C(=O)O)C(C)(C)[C@@H]5CC[C@]43C)[C@@H]12 [Compound 43, 4-(((1R,3aS,5aR,5bR,7aR,9S,11aR,11bR,13aR,13bR)-3a-((2S,4R)-4-(2-methoxyethoxy)-2-(4-phenyl-1H-imidazol-2-yl)pyrrolidine-1-carbonyl)-5a,5b,8,8,11a-pentamethyl-1-(prop-1-en-2-yl)icosahydro-1H-cyclopenta[a]chrysen-9-yl)oxy)-2,2-dimethyl-4-oxobutanoic acid] |  |  | 0.3 | 333 | 15400
10 | C=C(C)[C@@H]1CC[C@]2(C(=O)N3C[C@H](OCCOC)C[C@H]3c3nc(-c4ccc(F)cc4)c[nH]3)CC[C@]3(C)[C@H](CC[C@@H]4[C@@]5(C)CC[C@H](OC(=O)CC(C)(C)C(=O)O)C(C)(C)[C@@H]5CC[C@]43C)[C@@H]12 [Compound 45, 4-(((1R,3aS,5aR,5bR,7aR,9S,11aR,11bR,13aR,13bR)-3a-((2S,4R)-2-(4-(4-fluorophenyl)-1H-imidazol-2-yl)-4-(2-methoxyethoxy)pyrrolidine-1-carbonyl)-5a,5b,8,8,11a-pentamethyl-1-(prop-1-en-2-yl)icosahydro-1H-cyclopenta[a]chrysen-9-yl)oxy)-2,2-dimethyl-4-oxo butanoic acid] |  |  | 0.3 | 275 | 11500
11 | C=C(C)[C@@H]1CC[C@]2(C(=O)N3CCC[C@H]3c3ncc(-c4ccc(OC)cc4)[nH]3)CC[C@]3(C)[C@H](CC[C@@H]4[C@@]5(C)CC[C@H](OC(=O)CC(C)(C)C(=O)O)C(C)(C)[C@@H]5CC[C@]43C)[C@@H]12 [Compound 46, 4-(((1R,3aS,5aR,5bR,7aR,9S,11aR,11bR,13aR,13bR)-3a-((S)-2-(5-(4-methoxyphenyl)-1H-imidazol-2-yl)pyrrolidine-1-carbonyl)-5a,5b,8,8,11a-pentamethyl-1-(prop-1-en-2-yl)icosahydro-1H-cyclopenta[a]chrysen-9-yl)oxy)-2,2-dimethyl-4-oxobutanoic acid] |  |  | 11 | 153 | 8710
